The test system of series [1] is Staphylococcus aureus ATCC 6538P. The series is described as follows: Disc plate microbiological assay.
Excerpt: Th microbiological assay of the antibiotic substances is a disc plate assay using Staphylococcus aureus ATCC 6538P as test organism.
The next series can be described thus: in vivo. The settings on record: mouse, iv.
In series [2] the test system is gram-positive and gram-negative organisms. The experiment in a line: In vivo antibacterial activity in mice (in words). On the procedure:
(§1) Verdamicin I was tested against four (4) species of infectious bacteria in mice and was administered as a single subcutaneous dose one (1) hour after infection via intraperitoneal injection of a lethal quantity of pathogen.
(§2) Results obtained with gentamicin are set for comparison.

Series [3] concerns Pseudomonas aeruginosa 8689. The experiment in a line: Protective Activity in Mice. The settings on record: S.C., single dose one hour after intraperitoneal infection. The format is in vivo. On the procedure:
as §1, §2

A further series deals with Escherichia coli 10536. The series is described as follows: Protective Activity in Mice. The class given is in vivo. The conditions noted are these: S.C., single dose one hour after intraperitoneal infection. How it is done: as §1, §2
For another series, the system named is Streptococcus pyogenes C. The experiment in a line: Protective Activity in Mice. The class given is in vivo. The conditions noted are these: S.C., single dose one hour after intraperitoneal infection. On the procedure: as §1, §2
The test system of series [4] is Staphylococcus aureus Gray. The series is described as follows: Protective Activity in Mice. The class given is in vivo. The conditions noted are these: S.C., single dose one hour after intraperitoneal infection. On the procedure: as §1, §2
Series [5] can be described thus: pKa (Chemical and Physical Properties of Verdamicin I). The format is physicochemical. The conditions noted are these: base. From the text: In table VI below are set forth physical properties of […] as the hydrated free nitrogen base and as the sulfuric acid addition salt (sulfate).
Series [6] concerns gram positive and gram-negative bacteria. The series is described as follows: In vitro antibacterial activity, Verdamicin I (in words). The class given is cell-based.

Counter-ions that a name gives are not always drawn.

In the case of `CN[C@@H]1[C@@H](O)[C@@H](O[C@@H]2[C@@H](O)[C@H](O[C@H]3OC(C(C)N)=CC[C@H]3N)[C@@H](N)C[C@H]2N)OC[C@]1(C)O` (stereo partly drawn) [Verdamicin I Sulfate], in series [1] (own base as comparison standard), the “potency against its own base as the comparison standard” value came out at 695 meg/mg.

In turn, `CN[C@@H]1[C@@H](O)[C@@H](O[C@@H]2[C@@H](O)[C@H](O[C@H]3OC(C(C)N)=CC[C@H]3N)[C@@H](N)C[C@H]2N)OC[C@]1(C)O` (stereo partly drawn) [Verdamicin I] showed an LD50 in the series “in vivo” of 75 mg/kg. In addition, the “in vivo antibacterial activity” value in series [2] is given as “potent antibacterial agent”. Moreover, the dose response curve entry in series [1] (gentamicin assay) is reported as “parallel to that of gentamicin”. Also, the zone of inhibition in series [1] (one meg. of standard) amounted to 17.0 ± 1.3 mm. Moreover, the ED50 was 2 mg/kg in series [3] (Pseudomonas aeruginosa, 8689, sc, 1 h, read-out: PD50); 1.5 mg/kg in the series with Escherichia coli 10536 (Escherichia coli, 10536, sc, 1 h, read-out: PD50); 1 mg/kg in the series with Streptococcus pyogenes C (Streptococcus pyogenes, sc, 1 h, read-out: PD50); 2.5 mg/kg in series [4] (Staphylococcus aureus, sc, 1 h, read-out: PD50). Further, in series [5], the pKa is given as 8.1. Moreover, the “antibacterial activity in vitro” value in series [6] is given as “broad spectrum of antibacterial activity”.

Take gentamicin [reference compound]: the PD50 in series [3] was 1.7 mg/kg; in the series on Escherichia coli 10536 it was 1.7 mg/kg; in the series on Streptococcus pyogenes C, 5.0 mg/kg; in series [4], 2.4 mg/kg.

As a reminder, the LD50 is the dose expected to kill half of the subjects tested. High values mean lower toxicity, low ones greater toxicity. As a reminder, the zone of inhibition is the size of the clear area around the sample on an inoculated plate. By pKa is commonly meant the pH at which an ionisable group is half protonated. High values mean a weaker acid or stronger base, low ones a stronger acid or weaker base.

For the origin of these results see patent US3988316A, “Antibiotics sisomicin and verdamicin I and complex containing same” (Schering Corporation, priority 1975, dated 1976).
